Where a name gives a salt, the structure may show the parent alone.

In US6656956B2, “Benzimidazole derivatives, processes for preparing them and their use as pharmaceutical compositions” (Boehringer Ingelheim Pharma KG, priority 2001, dated 2003) one finds IC50 data, which are given here for 24 compounds.

The target of this test is T1, rh beta tryptase (Homo sapiens, UniProt Q15661).
T1 construct: purchased Promega
Description: tryptase inhibition in vitro test (cleavage of N-p-tosyl-Gly-Pro-Lys-para-nitroaniline, p-nitroaniline measured at 405 nm). Type of test: biochemical. The following applies: rh beta tryptase 0.91 U/ml, substrate 0.6 mM, Tris HCl buffer with calcium and heparin, pH 7.4, 37° C., 5 minutes incubation; read-out: Tryptase-inhibiting activity. On the procedure: The compounds according to the invention are characterised by their tryptase-inhibiting activity. This ability to inhibit tryptase was investigated using the test described below.
The measurement is carried out in Tris HCl buffer (100 mM), which additionally contains calcium (5 mM) and heparin ([…]), at pH 7.4. The standard used is rh beta tryptase which may be obtained commercially from Promega, for example. The substrate used is N-p-tosyl-Gly-Pro-Lys-para-nitroaniline in a concentration of 0.6 mM. The substrate is digested with tryptase to form p-nitroaniline which can be measured at 405 nm. Usually, an incubation period of 5 minutes and an incubation temperature of 37° C. are chosen. The enzyme activity used is 0.91 U/ml. The measurements are carried out in an Autoanalyser (Cobas Bio) made by Hofmann LaRoche. The potential inhibitory substances are used in concentrations of 10 μM in the screening, the inhibition of the tryptase being given in percent. The IC50 is determined at over 70% inhibition (concentration at which 50% of the enzyme activity is inhibited). After 5 minutes' pre-incubation of the potential inhibitory substances, the substrate is added to start the reaction, the formation of p-nitroaniline being taken as a measurement of the enzyme activity after 5 minutes, after testing the linearity.

T1 sequence (Q15661 31-275): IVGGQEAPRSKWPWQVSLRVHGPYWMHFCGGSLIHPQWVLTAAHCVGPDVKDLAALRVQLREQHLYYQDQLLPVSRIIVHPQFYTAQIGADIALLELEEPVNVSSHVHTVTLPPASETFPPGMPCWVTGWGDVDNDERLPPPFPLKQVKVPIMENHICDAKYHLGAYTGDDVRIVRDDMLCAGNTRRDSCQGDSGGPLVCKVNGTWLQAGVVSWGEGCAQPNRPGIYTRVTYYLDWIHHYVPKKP

Take `CN(C(=O)CN1CCC(Nc2ccccc2C(=N)N)CC1)c1ccc2c(c1)nc(CCc1ccc(C(=N)N)cc1)n2C` [Example 40, N-{2-[2-(4-Amidinophenyl)-ethyl]-1-methyl-benzimidazol-5-yl}-N-methyl-2-[4-(2-amidinophenylamino)-piperid-1-yl]-acetamide, dihydrochloride]: the IC50 fell in the range of 31 to 1000 nM.

With `Cc1ccc(NC2CCN(CC(=O)N(C)c3ccc4c(c3)nc(CCc3ccc(C(=N)N)cc3)n4C)CC2)c(Br)c1` [Example 66, N-{2-[2-(4-Amidinophenyl)-ethyl]-1-methyl-benzimidazol-5-yl}-N-methyl-2-[4-(2-bromo-4-methylamino)-piperid-1-yl]-acetamide, dihydrochloride], the IC50 is 0.5 to 3 nM.

For `Cn1c(CCc2ccc(C(=N)N)cc2)nc2cc(N(Cc3cccc([N+](=O)[O-])c3)C(=O)CN3CCC(Nc4ccccn4)CC3)ccc21` [Example 50, N-{2-[2-(4-Amidinophenyl)-ethyl]-1-methyl-benzimidazol-5-yl}-N-[3-nitrophenylmethyl]-2-[4-(2-pyridylamino)-piperid-1-yl]-acetamide, dihydrochloride], the IC50 was 4 to 30 nM.

On to `Cn1c(CCc2ccc(C(=N)N)cc2)nc2cc(N(Cc3cccc4ccccc34)C(=O)Nc3cccc(Cl)c3)ccc21` [Example 74, N-{2-[2-(4-Amidinophenyl)-ethyl]-1-methyl-benzimidazol-5-yl}-N-[naphth-1-ylmethyl]-N′-(3-chloro)-phenyl, hydrochloride], for which the IC50 fell in the range of 31 to 1000 nM.

Regarding `Cn1c(CCc2ccc(C(=N)N)cc2)nc2cc(N(Cc3ccc(N)cc3)C(=O)CN3CCC(Nc4ccccc4)CC3)ccc21` [Example 44, N-{2-[2-(4-Amidinophenyl)-ethyl]-1-methyl-benzimidazol-5-yl}-N-[4-aminophenyl-methyl]-2-(4-phenylamino-piperid-1-yl)-acetamide, dihydrochloride], the IC50 lay in the range of 4 to 30 nM.

Regarding `CN(C(=O)CN1CCC(Nc2ccc(Cl)cc2Cl)CC1)c1ccc2c(c1)nc(CCc1ccc(C(=N)N)cc1)n2C` [Example 32, N-{2-[2-(4-Amidinophenyl)-ethyl]-1-methyl-benzimidazol-5-yl}-N-methyl-2-[4-(2,4-dichlorophenylamino)-piperid-1-yl]-acetamide, dihydrochloride], the IC50 fell in the range of 0.5 to 3 nM.

On to `Cn1c(CCc2ccc(C(=N)N)cc2)nc2cc(N(Cc3cccc4ccccc34)C(=O)CN3CCC(Nc4ccc(O)cc4)CC3)ccc21` [Example 18, N-{2-[2-(4-Amidinophenyl)-ethyl]-1-methyl-benzimidazol-5-yl}-N-[naphth-1-ylmethyl]-2-[4-(4-hydroxyphenylamino)-piperid-1-yl]-acetamide, dihydrochloride], for which the IC50 was 4 to 30 nM.

With `CN(C(=O)CN1CCC(Nc2ccccc2Cl)CC1)c1ccc2c(c1)nc(CCc1ccc(C(=N)N)cc1)n2C` [Example 31, N-{2-[2-(4-Amidinophenyl)-ethyl]-1-methyl-benzimidazol-5-yl}-N-methyl-2-[4-(2-chlorophenylamino)-piperid-1-yl]-acetamide, dihydrochloride], the IC50 lay in the range of 0.5 to 3 nM.

As to `Cn1c(CCc2ccc(C(=N)N)cc2)nc2cc(N(Cc3cccc4ccccc34)C(=O)NC3CCC(Nc4ccccn4)CC3)ccc21` (stereo not drawn) [Example 76, N-{2-[2-(4-Amidinophenyl)-ethyl]-1-methyl-benzimidazol-5-yl}-N-[naphth-1-ylmethyl]-N′-[4-(2-pyridyl)-amino-cyclohexyl)-urea, hydrochloride], the IC50 was in the range of 31 to 1000 nM.

Consider `Cn1c(CCc2ccc(C(=N)N)cc2)nc2cc(N(Cc3cccc4ccccc34)C(=O)CN3CCC(Cc4ccccc4)CC3)ccc21` [Example 9, N-{2-[2-(4-Amidinophenyl)-ethyl]-1-methyl-benzimidazol-5-yl}-N-[naphth-1-ylmethyl]-2-[4-(benzyl)-piperid-1-yl]-acetamide, dihydrochloride], for which the IC50 was in the range of 4 to 30 nM.

Consider `CN(C)CCCN(C)C(=O)N(Cc1cccc2ccccc12)c1ccc2c(c1)nc(CCc1ccc(C(=N)N)cc1)n2C` [Example 78, N-{2-[2-(4-Amidinophenyl)-ethyl]-1-methyl-benzimidazol-5-yl}-N-[naphth-1-ylmethyl]-N′-methyl-N′-(3-dimethylamino-propyl)-urea, hydrochloride], for which the IC50 is 31 to 1000 nM.

`CN(C)c1ccc(CN(C(=O)CN2CCC(Nc3ccccn3)CC2)c2ccc3c(c2)nc(CCc2ccc(C(=N)N)cc2)n3C)c2ccccc12` [Example 51, N-{2-[2-(4-Amidinophenyl)-ethyl]-1-methyl-benzimidazol-5-yl}-N-[4-dimethylamino-naphth-1-ylmethyl]-2-[4-(2-pyridylamino)-piperid-1-yl]-acetamide, dihydrochloride]: the IC50 was in the range of 4 to 30 nM.

For `Cn1c(CCc2ccc(C(=N)N)cc2)nc2cc(N(Cc3cccc4ccccc34)C(=O)N3CCC(Nc4ccccn4)CC3)ccc21` [Example 79, N-{2-[2-(4-Amidinophenyl)-ethyl]-1-methyl-benzimidazol-5-yl}-N-[naphth-1-ylmethyl]-N′-[4-(2-pyridyl)-amino]-piperid-1-ine-urea, hydrochloride], the IC50 was in the range of 31 to 1000 nM.

For the compound `CN(CCC(=O)O)C1CCN(CC(=O)N(Cc2cccc3ccccc23)c2ccc3c(c2)nc(CCc2ccc(C(=N)N)cc2)n3C)CC1` [Example 25, N-{2-[2-(4-Amidinophenyl)-ethyl]-1-methyl-benzimidazol-5-yl}-N-[naphth-1-ylmethyl]-2-[4-(N-methyl-N-propionic acid)-piperid-1-yl]-acetamide, diacetate], the IC50 lay within 31 to 1000 nM.

For the compound `CN(C(=O)CN1CCC(N(Cc2ccccc2)C2CCCN2)CC1)c1ccc2c(c1)nc(CCc1ccc(C(=N)N)cc1)n2C` (stereo not drawn) [Example 43, N-{2-[2-(4-Amidinophenyl)-ethyl]-1-methyl-benzimidazol-5-yl}-N-methyl-2-{4-[(N-benzyl)-2-pyrrolidylamino]-piperid-1-yl}-acetamide, dihydrochloride], the IC50 was in the range of 4 to 30 nM.

For `Cn1c(CCc2ccc(C(=N)N)cc2)nc2cc(N(Cc3cccc4ccccc34)C(=O)CN3CCC(Oc4ccccn4)CC3)ccc21` [Example 16, N-{2-[2-(4-Amidinophenyl)-ethyl]-1-methyl-benzimidazol-5-yl}-N-[naphth-1-ylmethyl]-2-[4-(2-pyridinoxy)-piperid-1-yl]-acetamide, dihydrochloride], the IC50 lay within 4 to 30 nM.

In the case of `CN(C(=O)CN1CCC(Nc2ccc(Br)cc2Cl)CC1)c1ccc2c(c1)nc(CCc1ccc(C(=N)N)cc1)n2C` [Example 62, N-{2-[2-(4-Amidinophenyl)-ethyl]-1-methyl-benzimidazol-5-yl}-N-methyl-2-[4-(2-chloro-4-bromoamino)-piperid-1-yl]-acetamide, dihydrochloride], the IC50 was 0.5 to 3 nM.

In the case of `COc1cccc(NC(=O)N(Cc2cccc3ccccc23)c2ccc3c(c2)nc(CCc2ccc(C(=N)N)cc2)n3C)c1` [Example 73, N-{2-[2-(4-Amidinophenyl)-ethyl]-1-methyl-benzimidazol-5-yl}-N-[naphth-1-ylmethyl]-N′-(3-methoxy)-phenyl, hydrochloride], the IC50 lay in the range of 31 to 1000 nM.

As for `CN(C(=O)CN1CCC(Nc2ccc3c(c2)Cc2ccccc2-3)CC1)c1ccc2c(c1)nc(CCc1ccc(C(=N)N)cc1)n2C` [Example 42, N-{2-[2-(4-Amidinophenyl)-ethyl]-1-methyl-benzimidazol-5-yl}-N-methyl-2-[4-(aminofluorene)-piperid-1-yl]-acetamide, dihydrochloride], the IC50 lay in the range of 4 to 30 nM.

For `CN(C(=O)CN1CCC(Nc2ccc(C(C)(C)C)cc2Cl)CC1)c1ccc2c(c1)nc(CCc1ccc(C(=N)N)cc1)n2C` [Example 69, N-{2-[2-(4-Amidinophenyl)-ethyl]-1-methyl-benzimidazol-5-yl}-N-methyl-2-[4-(2-chloro-4-tert.butylamino)-piperid-1-yl]-acetamide, dihydrochloride], the IC50 is 31 to 1000 nM.

In the case of `CCOC(=O)CCN(C(=O)CN1CCC(Nc2ccccn2)CC1)c1ccc2c(c1)nc(CCc1ccc(C(=N)N)cc1)n2C` [Example 53, N-{2-[2-(4-Amidinophenyl)-ethyl]-1-methyl-benzimidazol-5-yl}-N-[ethyl ethanecarboxylate]-2-[4-(2-pyridylamino)-piperid-1-yl]-acetamide, dihydrochloride], the IC50 lay in the range of 4 to 30 nM.

Take `CN(C(=O)CN1CCC(Nc2ccccc2C(F)(F)F)CC1)c1ccc2c(c1)nc(CCc1ccc(C(=N)N)cc1)n2C` [Example 38, N-{2-[2-(4-Amidinophenyl)-ethyl]-1-methyl-benzimidazol-5-yl}-N-methyl-2-[4-(2-trifluoromethylphenylamino)-piperid-1-yl]-acetamide, dihydrochloride]: the IC50 lay in the range of 4 to 30 nM.

For `Cn1c(CCc2ccc(C(=N)N)cc2)nc2cc(N(Cc3cccc4ccccc34)C(=O)CN3CCC(C(=O)c4ccccc4)CC3)ccc21` [Example 24, N-{2-[2-(4-Amidinophenyl)-ethyl]-1-methyl-benzimidazol-5-yl}-N-[naphth-1-ylmethyl]-2-[4-(phenylcarbonyl)-piperid-1-yl]-acetamide, dihydrochloride], the IC50 is 0.5 to 3 nM.

For the compound `CCOC(=O)CCN(C)C1CCN(CC(=O)N(Cc2cccc3ccccc23)c2ccc3c(c2)nc(CCc2ccc(C(=N)N)cc2)n3C)CC1` [Example 21, N-{2-[2-(4-Amidinophenyl)-ethyl]-1-methyl-benzimidazol-5-yl}-N-[naphth-1-ylmethyl]-2-[4-(ethyl N-methyl-N-propionate)-piperid-1-yl]-acetamide, trihydrochloride], the IC50 fell in the range of 4 to 30 nM.
